Reference: patent US9750759B2, “Antitumoral compounds” (priority 2008, dated 2017)
Where two headings read alike, the source gives them in different places.

Legend:
Assay in all cases: cells
Format in all cases: cell-based
A549 = conditions: Homo sapiens; for GI50: concentration that produces 50% growth inhibition; for IC (total growth inhibition): read-out: TGI
Description: (§1) The aim of this assay is to evaluate the in vitro cytostatic (ability to delay or arrest tumor cell growth) or cytotoxic (ability to kill tumor cells) activity of the samples being tested.
(§2) A colorimetric type of assay, using sulforhodamine B (SRB) reaction has been adapted for a quantitative measurement of cell growth and viability (following the technique described by Skehan P et al. J. Natl. Cancer Inst. 1990, 82, 1107-1112).
(§3) This form of assay employs SBS-standard 96-well cell culture microplates (Faircloth et al. Methods in cell science, 1988, 11(4), 201-205; Mosmann et al, Journal of Immunological. Methods, 1983, 65(1-2), 55-63). All the cell lines used in this study, derived from different types of human cancer, were obtained from the American Type Culture Collection (ATCC).
(§4) Cells were maintained in Dulbecco's Modified Eagle Medium (DMEM) supplemented with 10% Fetal Bovine Serum (FBS), 2 mM L-glutamine, 100 U/mL penicillin and 100 U/mL streptomycin at 37° C., 5% CO2 and 98% humidity. For the experiments, cells were harvested from subconfluent cultures using trypsinization and resuspended in fresh medium before counting and plating.
(§5) Cells were seeded in 96 well microtiter plates at 5×10^3 cells per well in aliquots of 150 μL, and allowed to attach to the plate surface for 18 hours in drug free medium. One control (untreated) plate of each cell line was fixed (as described below) and used for time zero reference value. Afterwards, test samples were added to the cultures in ten serial dilutions, in aliquots of 50 μL, ranging from 10 to 0.00262 μg/mL. After 48 hours exposure, the antitumor effect was estimated by the SRB method: Briefly, cells were washed twice with PBS, fixed for 15 min in 1% glutaraldehyde solution, rinsed twice in PBS, and stained in 0.4% SRB solution for 30 min at room temperature. Cells were then rinsed several times with 1% acetic acid solution and air-dried. SRB was then extracted in 10 mM trizma base solution and the absorbance measured in an automated spectrophotometric plate reader at 490 nm. Cell survival was expressed as percentage of control cell growth. The final effect of the sample being tested was estimated by applying the NCI algorithm (Boyd M R and Paull K D. Drug Dev. Res. 1995, 34, 91-104).
(§6) Using the mean±SD of triplicate cultures, a dose-response curve was automatically generated using nonlinear regression analysis. Three reference parameters were calculated (NCI algorithm) by automatic interpolation: GI50=concentration that produces 50% growth inhibition; TGI=total growth inhibition (cytostatic effect) and LC50=concentration that produces 50% net cell killing (cytotoxic effect).

MDA-MB-231 = conditions: Homo sapiens; for GI50: concentration that produces 50% growth inhibition; for IC (total growth inhibition): read-out: TGI
Description: as §1, §2, §3, §4, §5, §6

HT29 = conditions: Homo sapiens; for GI50: concentration that produces 50% growth inhibition; for IC (total growth inhibition): total growth inhibition (cytostatic effect), read-out: TGI
Description: as §1, §2, §3, §4, §5, §6

[1] = A549, 48 hours exposure, concentration that produces 50% net cell killing, read-out: LC50 (the source's name)
[2] = A549, 48 hours exposure, total growth inhibition (cytostatic effect)
[3] = MDA-MB-231, 48 hours exposure, concentration that produces 50% net cell killing, read-out: LC50 (the source's name)
[4] = MDA-MB-231, 48 hours exposure, total growth inhibition (cytostatic effect)
[5] = HT-29, HT29, 48 hours exposure, concentration that produces 50% net cell killing, read-out: LC50 (the source's name)
[6] = MDA-MB-231, 48 h, read-out: LC50

Structure (SMILES) | GI50 (A549; A549, 48 hours exposure) [nM] | CC50 (A549; [1]) [nM] | IC (total growth inhibition) (A549; [2]) [µM] | GI50 (MDA-MB-231; MDA-MB-231, 48 hours exposure) [nM] | CC50 (MDA-MB-231; [3]) [nM] | IC (total growth inhibition) (MDA-MB-231; [4]) [µM] | GI50 (HT29; HT-29, HT29, 48 hours exposure) [nM] | CC50 (HT29; [5]) [nM] | IC (total growth inhibition) (HT29; HT-29, HT29, 48 hours exposure) [µM] | CC50 (A549; A549, 48 h, read-out: LC50) [nM] | CC50 (MDA-MB-231; [6]) [nM] | CC50 (HT29; HT-29, 48 h, read-out: LC50) [nM] | IC (total growth inhibition) (MDA-MB-231; MDA-MB-231, 48 h) [µM] | IC (total growth inhibition) (A549; A549, 48 h) [µM]
COC1=CC[C@@H]([C@@H](C)/C=C(C)/C=C\C#CC(=O)N[C@H](C(=O)N/C=C\C[C@H](C/C=C(\C)Cl)O[Si](C)(C)C(C)(C)C)C(C)C)OC1=O [Compound 64b] | 680 | > 15100 | 3.33 | 1330 | > 15100 | > 15.1 | 423 | 2420 | 0.65 | – | – | – | – | –
C/C=C\C[C@@H](C/C=C\NC(=O)[C@@H](NC(=O)C#C/C=C\C(C)=C\[C@H](C)[C@@H]1CC=C(OC)C(=O)O1)C(C)(C)C)O[Si](c1ccccc1)(c1ccccc1)C(C)(C)C [Compound 79] | > 13100 | > 13100 | > 13.1 | > 13100 | > 13100 | > 13.1 | 5100 | > 13100 | > 13.1 | – | – | – | – | –
COC1=CC[C@@H]([C@@H](C)/C=C(C)/C=C\C=C/C(=O)N[C@H](C(=O)N/C=C\C[C@H](C/C=C(\C)Cl)OC(N)=O)C(C)(C)C)O[C@H]1O [Compound 85] | 0.723 | – | 0.00164 | 1.02 | – | 0.00181 | 0.345 | – | 0.000625 | > 16.4 | > 16.4 | 1.97 | – | –
CC#CC[C@H](O)C/C=C\NC(=O)[C@@H](NC(=O)\C=C/C=C\C(C)=C\[C@H](C)[C@@H]1CC=C(OC)C(=O)O1)C(C)(C)C [Compound 71] | 266 | – | 1.84 | 209 | – | 2.85 | 58.9 | – | 0.175 | 8540 | > 19000 | > 19000 | – | –
COC1=CC[C@@H]([C@@H](C)/C=C\C=C/C(=O)N[C@H](C(=O)N/C=C\C[C@H](C/C=C(\C)Cl)O[Si](C)(C)C(C)(C)C)C(C)(C)C)OC1=O [Compound 67] | 1570 | 4860 | 2.82 | 910 | 1210 | 1.04 | 1880 | 3140 | 2.35 | – | – | – | – | –
COC1=CC[C@@H]([C@@H](C)/C=C(C)/C=C\C#CC(=O)N[C@H](C(=O)N/C=C\C[C@H](C/C=C(\C)Cl)O[Si](C)(C)C(C)(C)C)C(C)(C)C)OC1=O [Compound 64a] | 4440 | > 14800 | > 14.8 | 4890 | > 14800 | > 14.8 | 2220 | > 14800 | 4.29 | – | – | – | – | –
C/C=C\C[C@@H](C/C=C\NC(=O)[C@@H](NC(=O)\C=C/C=C\C(C)=C\[C@H](C)[C@@H]1CC=C(OC)[C@H](O)O1)C(C)(C)C)OC(N)=O [Compound 89] | 0.138 | – | 0.000279 | 0.296 | – | – | 0.0802 | – | 0.000127 | 0.819 | > 1.74 | 0.227 | > 0.00174 | –
COC1=CC[C@@H]([C@@H](C)/C=C\C=C/C(=O)N[C@H](C(=O)N/C=C\C[C@H](C/C=C(\C)Cl)OC(N)=O)C(C)(C)C)OC1=O [Compound 69] | 230 | – | – | 336 | – | 1.63 | 173 | – | 0.424 | > 17700 | 8130 | > 17700 | – | > 17.7
COC1=CC[C@@H]([C@@H](C)/C=C(C)/C=C\C#CC(=O)N[C@H](C(=O)N/C=C\C[C@H](C/C=C(\C)Cl)OC(N)=O)C(C)(C)C)OC1=O [Compound 66a] | 33.1 | – | 0.397 | 44.7 | – | 0.778 | 12.1 | – | 0.0513 | > 16600 | > 16600 | 2810 | – | –
COC1=CC[C@@H]([C@@H](C)/C=C\C=C/C(=O)N[C@H](C(=O)N/C=C\C[C@@H](O)C/C=C(\C)Cl)C(C)(C)C)OC1=O [Compound 68] | 1470 | – | 4.21 | 784 | – | 1.49 | 459 | – | 0.707 | > 19100 | 6500 | > 19100 | – | –
CC#CC[C@@H](C/C=C\NC(=O)[C@@H](NC(=O)\C=C/C=C\C(C)=C\[C@H](C)[C@@H]1CC=C(OC)C(=O)O1)C(C)(C)C)O[Si](c1ccccc1)(c1ccccc1)C(C)(C)C [Compound 70] | 2090 | 3270 | 2.61 | 1700 | 3530 | 2.48 | 1960 | 4050 | 2.74 | – | – | – | – | –
COC1=CC[C@@H]([C@@H](C)/C=C(C)/C=C\C#CC(=O)NC(C(=O)N/C=C\C[C@H](C/C=C(\C)Cl)O[Si](c2ccccc2)(c2ccccc2)C(C)(C)C)C(C)(C)C)OC1=O (stereo partly drawn) [Compound 78] | > 12500 | > 12500 | > 12.5 | > 12500 | > 12500 | > 12.5 | > 12500 | > 12500 | > 12.5 | – | – | – | – | –
C/C=C\C[C@H](O)C/C=C\NC(=O)[C@@H](NC(=O)C#C/C=C\C(C)=C\[C@H](C)[C@@H]1CC=C(OC)C(=O)O1)C(C)(C)C [Compound 80] | 93 | – | 0.304 | 152 | – | > 19 | 49.4 | – | 0.0949 | > 19000 | > 19000 | > 19000 | – | –
CC#CC[C@@H](C/C=C\NC(=O)[C@@H](NC(=O)\C=C/C=C\C(C)=C\[C@H](C)[C@@H]1CC=C(OC)C(=O)O1)C(C)(C)C)OC(N)=O [Compound 72] | 0.176 | – | 0.00281 | 0.246 | – | 0.00193 | 0.0579 | – | 0.000125 | > 176 | > 176 | > 176 | – | –
COC1=CC[C@@H]([C@@H](C)/C=C(C)/C=C\C#CCCC(=O)N[C@H](C(=O)N/C=C\C[C@H](C/C=C(\C)Cl)OC(N)=O)C(C)(C)C)OC1=O [Compound 100] | 395 | – | 2.21 | 348 | – | – | 53.8 | – | 0.301 | > 15800 | > 15800 | 7590 | > 15.8 | –
COC1=CC[C@@H]([C@@H](C)/C=C(C)/C=C\C#CC(=O)N[C@H](C(=O)N/C=C\C[C@@H](O)C/C=C(\C)Cl)C(C)(C)C)OC1=O [Compound 65a] | 3390 | – | 6.24 | 3560 | – | 9.98 | 1780 | – | 3.03 | 11800 | > 17800 | 7310 | – | –
C/C=C\C[C@H](O)C/C=C\NC(=O)[C@@H](NC(=O)/C=C\C#C/C(C)=C/[C@H](C)[C@@H]1CC=C(OC)C(=O)O1)C(C)(C)C [Compound 96] | 7780 | – | > 19 | 13100 | – | > 19 | 5890 | – | 8.92 | > 19000 | > 19000 | > 19000 | – | –
